From article PMC11012124, “Synthesis of Novel Triazine-Based Chalcones and 8,9-dihydro-7H-pyrimido[4,5-b][1,4]diazepines as Potential Leads in the Search of Anticancer, Antibacterial and Antifungal Agents” (International Journal of Molecular Sciences, 2024)

Assays:
NCI-H322M = experiment: cells; details: Homo sapiens, 48 h
K-562 = experiment: cells; details: Homo sapiens, K562, 48 h, K-562, 48 h
CAKI-1 = experiment: cells; details: Homo sapiens, CAKI-1, 48 h
MALME-3M = experiment: cells; details: Homo sapiens, 48 h
OVCAR-8 = experiment: cells; details: Homo sapiens, OVCAR-8, 48 h, read-out: LC50
MDA-MB-468 = experiment: cells; details: Homo sapiens, MDA-MB-468, 48 h
RXF 393 = experiment: cells; details: Homo sapiens, RXF 393, 48 h
SN12C = experiment: cells; details: Homo sapiens, 48 h
HL-60(TB) = experiment: cells; details: Homo sapiens, HL-60, 48 h
SNB-75 = experiment: cells; details: Homo sapiens, SNB-75, 48 h
UACC-257 = experiment: cells; details: Homo sapiens, UACC-257, 48 h
SK-MEL-28 = experiment: cells; details: Homo sapiens, SK-MEL-28, 48 h
A498 = experiment: cells; details: Homo sapiens, A498, 48 h
SF-295 = experiment: cells; details: Homo sapiens, SF-295, 48 h
KM12 = experiment: cells; details: Homo sapiens, KM12, 48 h
TK-10 = experiment: cells; details: Homo sapiens, TK-10, 48 h
OVCAR-4 = experiment: cells; details: Homo sapiens, OVCAR-4, 48 h, read-out: LC50
OVCAR-3 = experiment: cells; details: Homo sapiens, OVCAR-3, 48 h
[1] = Hemolytic activity, spectrophotometric; format: cell-based, human; details: human, human red blood cells (huRBC), 5% hematocrit, 200 μg/mL, 37 °C
OVCAR-5 = experiment: cells; details: Homo sapiens, OVCAR-5, 48 h
COLO 205 = experiment: cells; details: Homo sapiens, COLO 205, 48 h
HT29 = experiment: cells; details: Homo sapiens, HT-29, 48 h
SF-268 = experiment: cells; details: Homo sapiens, SF-268, 48 h
SF-539 = experiment: cells; details: Homo sapiens, SF-539, 48 h
NCI-H460 = experiment: cells; details: Homo sapiens, NCI-H460, 48 h
786-0 = experiment: cells; details: Homo sapiens, 786-0, 48 h
HCC-2998 = experiment: cells; details: Homo sapiens, HCC 2998, 48 h
CCRF-CEM = experiment: cells; details: Homo sapiens, 48 h
M14 = experiment: cells; details: Homo sapiens, M14, 48 h
HCT-15 = experiment: cells; details: Homo sapiens, HCT-15, 48 h
HS 578T = experiment: cells; details: Homo sapiens, 48 h
UACC-62 = experiment: cells; details: Homo sapiens, UACC-62, 48 h
UO-31 = experiment: cells; details: Homo sapiens, UO-31, 48 h
MCF7 = experiment: cells; details: Homo sapiens, MCF7, 48 h
EKVX = experiment: cells; details: Homo sapiens, 48 h
SK-OV-3 = experiment: cells; details: Homo sapiens, SK-OV-3, 48 h
SK-MEL-5 = experiment: cells; details: Homo sapiens, SK-MEL-5, 48 h
HOP-62 = experiment: cells; details: Homo sapiens, HOP-62, 48 h

## Cc1ccc(C2CC(c3ccc(S(=O)(=O)NCCNc4nc(Nc5ccc(F)cc5)nc(N(C)C)n4)cc3)=Nc3c(N)nc(N)nc3N2)cc1 (stereo not drawn) [31b]
NCI-H322M
  GI50: > 100 µM
NCI-H322M; read-out: LC50
  CC50: > 100 µM
K-562
  GI50: 2.75 µM
CAKI-1
  GI50: 8.06 µM
CAKI-1; read-out: LC50
  CC50: > 100 µM
MALME-3M
  GI50: 4.65 µM
MALME-3M; read-out: LC50
  CC50: 33.2 µM
OVCAR-8
  CC50: > 100 µM
MDA-MB-468
  GI50: 2.72 µM
MDA-MB-468; read-out: LC50
  CC50: 8.52 µM
RXF 393
  GI50: 2.27 µM
RXF 393; read-out: LC50
  CC50: 9.12 µM
SN12C
  GI50: > 100 µM
SN12C; read-out: LC50
  CC50: > 100 µM
HL-60(TB)
  GI50: 2.94 µM
HL-60(TB); read-out: LC50
  CC50: 20.2 µM
SNB-75
  GI50: > 100 µM
SNB-75; read-out: LC50
  CC50: > 100 µM
UACC-257
  GI50: 26 µM
UACC-257; read-out: LC50
  CC50: > 100 µM
SK-MEL-28
  GI50: 26.9 µM
SK-MEL-28; read-out: LC50
  CC50: > 100 µM
A498
  GI50: > 100 µM
A498; read-out: LC50
  CC50: > 100 µM
SF-295
  GI50: 6.6 µM
SF-295; read-out: LC50
  CC50: > 100 µM
KM12
  GI50: 4.56 µM
KM12; read-out: LC50
  CC50: > 100 µM
TK-10
  GI50: > 100 µM
TK-10; read-out: LC50
  CC50: > 100 µM
OVCAR-4
  CC50: > 100 µM
OVCAR-3
  GI50: 9.93 µM
OVCAR-3; read-out: LC50
  CC50: > 100 µM
[1]
  hemolysis at 24 h, 200 µg/mL: 1.7%
OVCAR-5
  GI50: > 100 µM
OVCAR-5; read-out: LC50
  CC50: > 100 µM
COLO 205
  GI50: 11.5 µM
COLO 205; read-out: LC50
  CC50: > 100 µM
HT29
  GI50: 2.27 µM
HT29; read-out: LC50
  CC50: 4.65 µM
SF-268
  GI50: 7.53 µM
SF-268; read-out: LC50
  CC50: > 100 µM
SF-539
  GI50: 3.29 µM
SF-539; read-out: LC50, SF-539, 48 h
  CC50: 78.9 µM
NCI-H460
  GI50: 4.76 µM
NCI-H460; read-out: LC50
  CC50: > 100 µM
786-0
  GI50: 7.06 µM
786-0; read-out: LC50
  CC50: > 100 µM
HCC-2998
  GI50: 2.93 µM
HCC-2998; read-out: LC50
  CC50: 41.1 µM
CCRF-CEM
  GI50: 2.81 µM
CCRF-CEM; read-out: LC50
  CC50: > 100 µM
M14
  GI50: 4.56 µM
M14; read-out: LC50
  CC50: > 100 µM
HCT-15
  GI50: 4.95 µM
HCT-15; read-out: LC50
  CC50: > 100 µM
HS 578T
  GI50: 19.4 µM
HS 578T; read-out: LC50
  CC50: > 100 µM
UACC-62
  GI50: 20.9 µM
UACC-62; read-out: LC50
  CC50: > 100 µM
UO-31
  GI50: > 100 µM
UO-31; read-out: LC50
  CC50: > 100 µM
MCF7
  GI50: 3.08 µM
MCF7; read-out: LC50
  CC50: > 100 µM
EKVX
  GI50: 5.84 µM
EKVX; read-out: LC50
  CC50: > 100 µM
SK-OV-3
  GI50: > 100 µM
SK-OV-3; read-out: LC50
  CC50: > 100 µM
SK-MEL-5
  GI50: 4.98 µM
SK-MEL-5; read-out: LC50
  CC50: 20.6 µM
HOP-62
  GI50: > 100 µM
HOP-62; read-out: LC50
  CC50: > 100 µM
